Measured values from US20230339886A1 (University of Florida Research Foundation, Incorporated, priority 2020, published 2023).
pEC50: −log10 of the molar value.

The compounds below were run against T1, REV-ERBα LBD (human; residues 281-614 Δ324-422) (Homo sapiens, UniProt P20393, DEL324-422) (assay: TR-FRET corepressor interaction assay (REV-ERBα LBD, FITC-SMRT peptide)). Conditions: FITC-SMRT peptide, read-out: REVERBα agonism (EC50 class, FRET assay).
T1 construct: 6×Histag-REV-ERBα LBD (human; residues 281-614 Δ324-422); made in house; host or cells: Escherichia coli
T1 sequence (P20393 with tags, fused parts or gaps DEL324-422): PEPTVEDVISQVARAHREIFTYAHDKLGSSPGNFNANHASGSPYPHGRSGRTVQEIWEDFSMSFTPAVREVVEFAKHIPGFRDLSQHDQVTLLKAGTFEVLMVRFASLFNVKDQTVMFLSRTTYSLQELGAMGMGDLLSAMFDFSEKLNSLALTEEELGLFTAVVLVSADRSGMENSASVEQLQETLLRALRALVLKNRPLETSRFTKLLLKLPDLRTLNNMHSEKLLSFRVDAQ
T1 sequence (Q9Y618 2335-2356 partner limits assumed): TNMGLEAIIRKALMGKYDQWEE
Type: biochemical
In short: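 Compound serial dilutions (in DMSO, triplicate) incubated 2 h at 4 °C; Tb donor excited at 340 nm, emission read at 495 nm and FITC acceptor at 520 nm. TR-FRET ratio (520/495 nm) plotted against ligand concentration and fitted to a sigmoidal dose-response curve.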
`CC(C)(C)Cn1cc(CCNS(=O)(=O)C2CC2)c2ccc(-c3cccc(C#N)c3Cl)cc21` [Example 486, N-(2-(6-(2-chloro-3-cyanophenyl)-1-neopentyl-1H-indol-3-yl)ethyl)cyclopropanesulfonamide] gave a pEC50 of 5.52 to 6.30. Work on `CC(C)(C)Cn1cc([C@H](NS(=O)(=O)C2CCC2)C(F)(F)F)c2cc(F)c(C3CCCC3)cc21` [Example 428, (S)—N-(1-(6-cyclopentyl-5-fluoro-1-neopentyl-1H-indol-3-yl)-2,2,2-trifluoroethyl)cyclobutanesulfonamide] yielded a pEC50 greater than 6.30. For `CC(C)(O)Cn1cc([C@H](NS(=O)(=O)C2CCC2)C(F)(F)F)c2cc(F)c(-c3ccccc3C(F)(F)F)cc21` [Example 478, N-[(1S)-2,2,2-trifluoro-1-[5-fluoro-1-(2-hydroxy-2-methyl-propyl)-6-[2-(trifluoromethyl)phenyl]indol-3-yl]ethyl]cyclobutanesulfonamide], the pEC50 was 5.52 to 6.30. With `CC(C)(C)Cn1cc([C@H](NS(=O)(=O)C2CCC2)C(F)F)c2ccc(-c3c(F)cccc3C(F)(F)F)cc21` [Example 527, (S)—N-(2,2-difluoro-1-(6-(2-fluoro-6-(trifluoromethyl)phenyl)-1-neopentyl-1H-indol-3-yl)ethyl)cyclobutanesulfonamide] the pEC50 was greater than 6.30. In the case of `N#CC1(Cn2cc([C@H](NS(=O)(=O)C3CC3)C(F)(F)F)c3cc(F)c(-c4ccccc4C(F)(F)F)cc32)CC1` [Example 476, N-[(1S)-1-[1-[(1-cyanocyclopropyl)methyl]-5-fluoro-6-[2-(trifluoromethyl)phenyl]indol-3-yl]-2,2,2-trifluoro-ethyl]cyclopropanesulfonamide], the pEC50 was 5.52 to 6.30. For `CC1(Cn2cc([C@H](NS(=O)(=O)C3CCC3)C(F)(F)F)c3ccc(-c4ccccc4C(F)(F)F)cc32)CC1` [Example 512, (S)—N-(2,2,2-trifluoro-1-(1-((1-methylcyclopropyl)methyl)-6-(2-(trifluoromethyl)phenyl)-1H-indol-3-yl)ethyl)cyclobutanesulfonamide], the pEC50 was greater than 6.30. In the case of `CC(C)(C)Cn1cc(CCNS(=O)(=O)C2CC2)c2ccc(-c3cc(C(F)(F)F)ccc3Cl)cc21` [Example 484, N-(2-(6-(2-chloro-5-(trifluoromethyl)phenyl)-1-neopentyl-1H-indol-3-yl)ethyl)cyclopropanesulfonamide], the pEC50 was greater than 6.30. Compound `CC(C)(C)Cn1cc(CCNS(=O)(=O)C2CC2)c2ccc(-c3ccc(Cl)cc3C#N)cc21` [Example 482, N-(2-(6-(4-chloro-2-cyanophenyl)-1-neopentyl-1H-indol-3-yl)ethyl)cyclopropanesulfonamide] has a pEC50 greater than 6.30. Work on `CC(C)(CO)Cn1cc([C@H](NS(=O)(=O)C2CC2)C(F)(F)F)c2cc(F)c(-c3ccccc3C(F)(F)F)cc21` [Example 490, N-[(1S)-2,2,2-trifluoro-1-[5-fluoro-1-(3-hydroxy-2,2-dimethyl-propyl)-6-[2-(trifluoromethyl)phenyl]indol-3-yl]ethyl]cyclopropanesulfonamide] yielded a pEC50 of 5.52 to 6.30.

Same assay, conditions: Table 2, read-out: REVERBα agonism (EC50 class, FRET assay)
`CC(C)S(=O)(=O)n1cc(CCNS(=O)(=O)N(C)C)c2ccc(-c3ccncc3)cc21` [Example 130, N′-{2-[6-(pyridin-4-yl)-1-isopropylsulfonyl-1H-indol-3-yl]ethyl}-N,N-dimethylsulfuric diamide] gave a pEC50 of less than 5.52. For `CC(C)(C)Cn1cc([C@H](NS(=O)(=O)C2CC2)C(F)(F)F)c2cc(F)c(-c3cccc(F)c3C(F)(F)F)cc21` [Example 360, (S)—N-(2,2,2-trifluoro-1-(5-fluoro-6-(3-fluoro-2-(trifluoromethyl)phenyl)-1-neopentyl-1H-indol-3-yl)ethyl)cyclopropanesulfonamide], the pEC50 was greater than 6.30. `CC(c1ccccc1)n1cc(CCNS(=O)(=O)N(C)C)c2ccc(Br)cc21` (stereo not drawn) [Example 159, ({2-[6-bromo-1-(1-phenylethyl)-1H-indol-3-yl]ethyl}sulfamoyl)dimethylamine] showed a pEC50 of 5.52 to 6.30. `CC(C)Cn1cc(CCN(C)S(=O)(=O)N(C)C)c2ccc(-c3ccncc3)cc21` [Compound 5] was tested, and the pEC50 was greater than 6.30. Compound `CC(C)Cn1cc(CCNS(=O)(=O)N(C)C)c2ccc(C3CCN(C(=O)OC(C)(C)C)CC3)cc21` [Compound 101, tert-butyl 4-(3-{2-[(dimethylsulfamoyl)amino]ethyl}-1-(2-methylpropyl)-1H-indol-6-yl)piperidine-1-carboxylate] has a pEC50 of 5.52 to 6.30. Compound `CN(C)S(=O)(=O)NCCc1cn(CC2CCOC2)c2cc(-c3ccncc3)ccc12` (stereo not drawn) [Compound 9] has a pEC50 of 5.52 to 6.30. Work on `CC(C)Cn1cc(CCNS(=O)(=O)N(C)C)c2cc(F)c(Br)cc21` [Example 168, ({2-[6-bromo-5-fluoro-1-(2-methylpropyl)-1H-indol-3-yl]ethyl}sulfamoyl)dimethylamine] yielded a pEC50 greater than 6.30. Work on `CC(C)Cn1cc(CCNS(=O)(=O)N(C)C)c2ccc(NC(=O)c3ccccc3)cc21` [Compound 71] yielded a pEC50 of less than 5.52. `Cc1cn[nH]c1-c1cc2c(cc1F)c([C@H](NS(=O)(=O)C1CC1)C(F)(F)F)cn2CC(C)(C)C` [Example 381, N-[(1S)-1-[1-(2,2-dimethylpropyl)-5-fluoro-6-(4-methyl-1H-pyrazol-5-yl)indol-3-yl]-2,2,2-trifluoro-ethyl]cyclopropanesulfonamide] showed a pEC50 of 5.52 to 6.30. For `CC(C)Cc1cn(CCN(C)S(=O)(=O)C2CC2)c2ncc(-c3ccncc3)cc12` [Example 126, N-(2-(3-isobutyl-5-(pyridin-4-yl)-1H-pyrrolo[2,3-b]pyridin-1-yl)ethyl)-N-methylcyclopropanesulfonamide], the pEC50 was 5.52 to 6.30. For `CC(C)(C)Cc1cn(CCNS(=O)(=O)C2CC2)c2cc(F)c(-c3ccc(F)cc3C(F)(F)F)cc12` [Example 294], the pEC50 was greater than 6.30. With `CNS(=O)(=O)N[C@@H](c1cn(CC(C)(C)C)c2cc(-c3ccccc3C(F)(F)F)c(F)cc12)C(F)(F)F` [Example 371] the pEC50 was 5.52 to 6.30. In the case of `CC(C)Cn1cc([C@H]2C[C@H]2NS(=O)(=O)C(C)C)c2ccc(Br)cc21` [Compound 257], the pEC50 was 5.52 to 6.30. `CCC(C)C(=O)n1cc(CNS(=O)(=O)N(C)C)c2ccc(-c3ccncc3)cc21` (stereo not drawn) [Example 188, 1-(3-{[(dimethylsulfamoyl)amino]methyl}-6-(pyridin-4-yl)-1H-indol-1-yl)-2-methylbutan-1-one] was tested, and the pEC50 was greater than 6.30. In the case of `CC(C)S(=O)(=O)CCn1cc(CC(C)(C)C)c2cc(Br)ccc21` [Example 175, 5-bromo-1-(2-(isopropylsulfonyl)ethyl)-3-neopentyl-1H-indole], the pEC50 was less than 5.52. With `CC(C)Cn1cc([C@H](NS(=O)(=O)C2CC2)C(F)(F)F)c2ccc(-c3ccnn3C)cc21` [Example 370, (S)—N-(2,2,2-trifluoro-1-(1-isobutyl-6-(1-methyl-1H-pyrazol-5-yl)-1H-indol-3-yl)ethyl)cyclopropanesulfonamide] the pEC50 was greater than 6.30. In the case of `CC(C)(C)Cc1cn(CCNS(=O)(=O)C2CC2)c2ccc(-c3nccc4ccccc34)cc12` [Example 215, N-(2-(5-(isoquinolin-1-yl)-3-neopentyl-1H-indol-1-yl)ethyl)cyclopropane-sulfonamide], the pEC50 was less than 5.52. `CC(C)Cc1cn(CCN(C)S(=O)(=O)N(C)C)c2ncc(-c3ccncc3)cc12` [Example 125, dimethyl[methyl({2-[3-(2-methylpropyl)-5-(pyridin-4-yl)-1H-pyrrolo[2,3-b]pyridin-1-yl]ethyl})sulfamoyl]amine] showed a pEC50 greater than 6.30. With `CC(C)(C)Cn1cc([C@H](NS(=O)(=O)C2CC2)C(F)(F)F)c2cc(F)c(-c3ccccc3C(F)(F)F)cc21` [Example 319, (S)—N-(2,2,2-trifluoro-1-(5-fluoro-1-neopentyl-6-(2-(trifluoromethyl)phenyl)-1H-indol-3-yl)ethyl)cyclopropanesulfonamide] the pEC50 was greater than 6.30. Compound `CC(C)(C)Cn1cc([C@H](NS(=O)(=O)C2CC2)C(F)(F)F)c2cc(F)c(-c3ccccc3)cc21` [Example 350, (S)—N-(2,2,2-trifluoro-1-(5-fluoro-1-neopentyl-6-phenyl-1H-indol-3-yl)ethyl)cyclopropanesulfonamide] has a pEC50 of 5.52 to 6.30. Compound `Cc1nc2ccccn2c1-c1ccc2c([C@H](NS(=O)(=O)C3CC3)C(F)(F)F)cn(CC(C)(C)C)c2c1` [Example 385, (S)—N-(2,2,2-trifluoro-1-(6-(2-methylimidazo[1,2-a]pyridin-3-yl)-1-neopentyl-1H-indol-3-yl)ethyl)cyclopropanesulfonamide] has a pEC50 of 5.52 to 6.30. For `CC(C)(C)C(=O)n1cc(CNS(=O)(=O)C(F)(F)F)c2cc(F)c(-c3ccncc3Cl)cc21` [Compound 285], the pEC50 was less than 5.52. Work on `CN(C)S(=O)(=O)NCCc1cn(CCC(F)(F)F)c2cc(-c3ccncc3)ccc12` [Example 179, dimethyl({2-[6-(pyridin-4-yl)-1-(3,3,3-trifluoropropyl)-1H-indol-3-yl]ethyl}sulfamoyl)amine] yielded a pEC50 greater than 6.30. Work on `CC(C)Cn1cc(CCNS(=O)(=O)N(C)C)c2ccc(C#N)cc21` [Compound 96, 3-{2-[(dimethylsulfamoyl)amino]ethyl}-1-(2-methylpropyl)-1H-indole-6-carbonitrile] yielded a pEC50 greater than 6.30. Compound `COC(C)(C)Cn1cc([C@H](NS(=O)(=O)C2CCC2)C(F)(F)F)c2ccc(-c3ccccc3C(F)(F)F)nc21` [Example 413, (S)—N-(2,2,2-trifluoro-1-(1-(2-methoxy-2-methylpropyl)-6-(2-(trifluoromethyl)phenyl)-1H-pyrrolo[2,3-b]pyridin-3-yl)ethyl)cyclobutanesulfonamide] has a pEC50 greater than 6.30. `COC(=O)c1ccccc1-c1ccc2c(CCNS(=O)(=O)N(C)C)cn(CC(C)C)c2c1` [Example 73, N′-{2-[6-(2-methyl carbonatephenyl)-1-(2-methylpropyl)-1H-indol-3-yl]ethyl}-N,N-dimethyl sulfuric diamide] was tested, and the pEC50 was less than 5.52. `Cc1cccc(C#N)c1-c1ccc2c([C@H](NS(=O)(=O)C3CC3)C(F)(F)F)cn(CC(C)(C)C)c2c1` [Example 390, (S)—N-(1-(6-(2-cyano-6-methylphenyl)-1-neopentyl-1H-indol-3-yl)-2,2,2-trifluoroethyl)cyclopropanesulfonamide] was tested, and the pEC50 was greater than 6.30.
